What was measured:
human TLR7 = target: T1, human TLR7 (Homo sapiens, UniProt Q9NYK1); experiment: HEK293-humanTLR7 SEAP reporter assay (Example 8); format: cell-based; conditions: HEK293-hTLR7 SEAP reporter cells, 24 hrs
T1 construct: host or cells: HEK293
T1 sequence (Q9NYK1 27-1049): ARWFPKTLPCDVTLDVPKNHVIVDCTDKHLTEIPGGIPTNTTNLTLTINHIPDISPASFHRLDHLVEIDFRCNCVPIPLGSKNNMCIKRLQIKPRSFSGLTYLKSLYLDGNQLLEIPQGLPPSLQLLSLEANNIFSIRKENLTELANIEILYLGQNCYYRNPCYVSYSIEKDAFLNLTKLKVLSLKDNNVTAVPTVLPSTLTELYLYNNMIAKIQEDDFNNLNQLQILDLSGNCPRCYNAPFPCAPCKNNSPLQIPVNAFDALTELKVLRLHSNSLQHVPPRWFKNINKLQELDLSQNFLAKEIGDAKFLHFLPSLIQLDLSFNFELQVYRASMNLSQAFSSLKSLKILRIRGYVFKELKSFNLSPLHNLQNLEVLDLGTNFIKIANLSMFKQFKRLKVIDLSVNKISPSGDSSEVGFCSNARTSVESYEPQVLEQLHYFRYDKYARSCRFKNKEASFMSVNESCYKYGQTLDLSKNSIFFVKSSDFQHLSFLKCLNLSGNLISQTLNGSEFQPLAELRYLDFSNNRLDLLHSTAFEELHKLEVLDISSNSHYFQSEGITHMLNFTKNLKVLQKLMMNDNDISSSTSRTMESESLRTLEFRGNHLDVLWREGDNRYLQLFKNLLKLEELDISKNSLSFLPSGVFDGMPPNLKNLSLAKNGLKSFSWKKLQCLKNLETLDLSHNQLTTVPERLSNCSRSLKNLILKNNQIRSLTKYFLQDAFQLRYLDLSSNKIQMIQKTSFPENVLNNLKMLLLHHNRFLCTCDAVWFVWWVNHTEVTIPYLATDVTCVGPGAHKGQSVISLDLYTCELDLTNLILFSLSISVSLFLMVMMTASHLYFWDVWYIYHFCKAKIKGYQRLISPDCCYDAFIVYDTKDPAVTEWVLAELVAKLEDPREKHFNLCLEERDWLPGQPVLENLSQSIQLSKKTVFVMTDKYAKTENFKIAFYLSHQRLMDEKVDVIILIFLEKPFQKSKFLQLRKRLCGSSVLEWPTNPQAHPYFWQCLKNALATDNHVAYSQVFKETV
Description: (§1) In this example, the in vitro activity of compounds to activate human TLR7 (or human TLR8 or mouse TLR7) pathway was evaluated on HEK293 reporter cells transfected with human TLR7 (or human TLR8 or mouse TLR7) and an inducible SEAP (secreted embryonic alkaline phosphatase) reporter gene. The SEAP reporter gene is placed under the control of the IFN-β minimal promoter fused to five NF-κB and AP-1-binding sites. Stimulation with a TLR7 agonist activates NF-κB and AP-1 which induces the production of SEAP. Levels of SEAP were determined by HEK-Blue Detection medium.
(§2) The in vitro activity of compounds on TLR7 (human and mouse) and TLR8 (human only) reporter cell lines was assessed as follows. 5-(2-methoxy-4-(piperazin-1-ylmethyl)benzyl)-N4-pentyl-5H-pyrrolo[3,2-d]pyrimidine-2,4-diamine (Compound 1) is a compound used for comparison and has the structure shown below:
(§3) HEK293-humanTLR7 (hTLR7), HEK293-mouseTLR7 (mTLR7) and HEK293-humanTLR8 (hTLR8) reporter cell lines were purchased from Invivogen and cell lines were maintained in the manufacturer's recommended culture medium with required supplemental antibiotics. On the day of assay, the cells were harvested with Accutase and counted by the Vi-CELL Cell Viability Analyzers. Cells were resuspended in HEK blue detection medium and a total of 10,000 cells were seeded in each well of a 384-well flat bottom plate. Serial dilutions of test compounds (1:4 serial dilution starting from 5 μM) were added into treatment wells and assay plates were cultured at 37° C. in a CO2 incubator for 24 hrs. The plates were then read by spectrophotometry at 640 nm. Data was fitted with non-linear regression analysis, using a log(inhibitor) vs. response-variable slope, 3-parameter fit with GraphPad Prism. There result was reported in Table 1 as EC50 (the midpoint of the curve, or concentration at which 50% of the maximum effect was observed).

human TLR8 = target: T2, human TLR8 (Homo sapiens, UniProt Q9NR97); experiment: HEK293-humanTLR8 SEAP reporter assay (Example 8); format: cell-based; conditions: HEK293-hTLR8 SEAP reporter cells, 24 hrs
T2 construct: host or cells: HEK293
T2 sequence (Q9NR97 27-1041): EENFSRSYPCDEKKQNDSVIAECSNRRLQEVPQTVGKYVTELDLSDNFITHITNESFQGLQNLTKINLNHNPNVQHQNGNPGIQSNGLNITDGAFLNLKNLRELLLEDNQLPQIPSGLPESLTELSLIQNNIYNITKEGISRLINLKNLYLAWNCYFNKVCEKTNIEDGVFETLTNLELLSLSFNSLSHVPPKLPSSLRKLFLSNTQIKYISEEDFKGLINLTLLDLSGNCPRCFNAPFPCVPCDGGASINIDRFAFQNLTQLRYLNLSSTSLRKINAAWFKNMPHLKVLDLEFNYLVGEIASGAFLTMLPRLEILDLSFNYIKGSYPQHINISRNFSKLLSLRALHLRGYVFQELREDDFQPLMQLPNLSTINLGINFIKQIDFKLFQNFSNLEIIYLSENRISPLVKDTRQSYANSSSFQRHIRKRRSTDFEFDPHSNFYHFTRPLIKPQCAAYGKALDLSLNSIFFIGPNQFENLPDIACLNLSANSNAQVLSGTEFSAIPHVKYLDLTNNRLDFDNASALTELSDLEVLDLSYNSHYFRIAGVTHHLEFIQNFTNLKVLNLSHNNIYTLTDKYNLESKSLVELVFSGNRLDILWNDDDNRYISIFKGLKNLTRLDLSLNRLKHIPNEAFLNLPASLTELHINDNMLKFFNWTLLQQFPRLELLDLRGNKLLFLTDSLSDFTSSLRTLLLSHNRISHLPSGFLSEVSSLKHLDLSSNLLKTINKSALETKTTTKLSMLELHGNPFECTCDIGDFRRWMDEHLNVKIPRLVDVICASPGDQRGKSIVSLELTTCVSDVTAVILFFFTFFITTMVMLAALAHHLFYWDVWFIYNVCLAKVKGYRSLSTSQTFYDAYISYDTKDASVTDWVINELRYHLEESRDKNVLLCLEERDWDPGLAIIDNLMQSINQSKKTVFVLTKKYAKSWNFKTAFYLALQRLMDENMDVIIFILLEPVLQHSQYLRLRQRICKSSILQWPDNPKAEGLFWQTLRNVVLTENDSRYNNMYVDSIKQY
Description: as §1, §2, §3

SMILES	EC50 (human TLR7) [nM]	EC50 (human TLR8) [nM]
CCCCCNc1nc(N)nc2ccn(Cc3ccc(CN4CCNCC4)cc3OC)c12 [Compound 1, 5-(2-methoxy-4-(piperazin-1-ylmethyl)benzyl)-N4-pentyl-5H-pyrrolo[3,2-d]pyrimidine-2,4-diamine, reference compound]	1.9	338
CCCCCNc1nc(N)nc2ccn(Cc3ccc(CN4CC(NC)C4)cc3OC)c12 [Compound 2, 5-(2-methoxy-4-((3-(methylamino)azetidin-1-yl)methyl)benzyl)-N4-pentyl-5H-pyrrolo[3,2-d]pyrimidine-2,4-diamine]	1.6	367
CCCCCNc1nc(N)nc2ccn(Cc3ccc(CN4CC5(CNCCO5)C4)cc3OC)c12 [Compound 10, 5-[[2-methoxy-4-(5-oxa-2,8-diazaspiro[3.5]nonan-2-ylmethyl)phenyl]methyl]-N4-pentyl-pyrrolo[3,2-d]pyrimidine-2,4-diamine]	1.5	342

From patent publication US12534465B2, “5H-pyrrolo[3,2-d]pyrimidine-2,4-diamino compounds and antibody conjugates thereof” (SUTRO BIOPHARMA, INC., priority 2019, dated 2026)
